{"source": "patent US20260151398A1", "about": "“COMPOUNDS FOR REDUCING CHOLESTEROL AND TREATING LIVER AND KIDNEY DISEASE” (McMaster University, priority 2021, published 2026)", "key": {"PCSK9": {"system": "PCSK9", "test": "Secreted PCSK9 levels in HepG2 cells (ELISA)", "type": "cell-based, human", "procedure": "HuH7 and HepG2 cells were routinely grown in complete Dulbecco's Modified Eagle's Medium (Gibco, Thermofisher Scientific) supplemented with 10% fetal bovine serum (Sigma-Aldrich) and 100 U/ml of penicillin and streptomycin (Sigma-Aldrich). […] All cell treatments were carried out for 24 h unless otherwise stated. Cells were transfected with a cocktail consisting of plasmid DNA (1 μg), X-tremeGENE HP (3 μl; Thermofisher Scientific) and opti-MEM (100 μl; Thermofischer Scientific) per 1 ml complete medium containing plated cells. Human PCSK9 was overexpressed using the bicistronic pIRES-EGFP plasmid; calnexin using the mPA-GFP-N1 plasmid. To block the expression of GRP78 and CD36, siGENOME smartpool siRNA was purchased from GE Dharmacon (M-008198-02 and L-010206-00-0005 respectively) and transfected using lipofectamine RNAiMAX as per manufacturer's protocol.\nSecreted PCSK9 levels were assessed directly in cell culture medium of cells grown in FBS-free medium for 24 h or in the serum isolated from either mice or human subjects. Mouse PCSK9 was measured using the Quantikinine® ELISA kit (#MCP900, R&D Systems) and human PCSK9 using the PCSK9 Quantikinine® ELISA kit (#DCP900, R&D Systems). Serum ApoB levels were also quantified using ELISAs (#DAPB00, R&D Systems). Serum samples were diluted as per manufacturer's instructions.\nCF, however, is a well-characterized compound having several health benefits with few known adverse effects. Achieving an optimal level of PCSK9 inhibition absent of the neuro-excitatory effect of CF, however, may be a challenge for the long-term clinical application of these findings. […] See Table 6 for the structure activity relationships of several other known xanthine-based compounds explored at varying doses in HepG2 cells for 24 h."}, "AMPK": {"system": "AMPK", "test": "AMPK phosphorylation in livers of CF-treated mice", "type": "in vivo, mouse", "conditions": "C57BL/6J mice, CF 100 mg/kg, 8 hours", "procedure": "All animal studies were carried out in 8 h-fasted male wild-type, Pcsk9^−/− or Ampkβ1^−/− mice on the C57BL/6J background. CF (25-100 mg/kg-8 h) and CDN (50 mg/kg) treatments were administered via intraperitoneal injection unless specified otherwise. Primary mouse hepatocytes were isolated using a two-step process with EGTA ([…] in HEPES buffer, Sigma Aldrich) and collagenase (0.05% in HEPES buffer, Sigma Aldrich) in 12-week-old male mice on the C57BL/6J background. Cells were then washed, centrifuged, and plated following isolation in cell strainers. Hepatosure® 100-donor pooled primary human hepatocytes were purchased from Xenotech. Primary hepatocytes were regularly grown in William's E medium (Gibco, Thermo Fisher Scientific) containing 10% fetal bovine serum, 100 IU/ml penicillin, and 100 µg/ml streptomycin.\nPrevious studies have also shown that CF can promote the phosphorylation and activation of AMPK (Quan, H. Y., et al., 2013; Tsuda, S., et al., 2015), a liver-expressed kinase known to induce the inhibitory phosphorylation of SREBP1c (Li, Y., et al., 2011). […] Primary mouse hepatocytes were then isolated from wildtype (WT) and Ampkβ1−/− mice (Dzamko, N., et al., 2010)."}, "cytosolic Ca^2+ levels": {"system": "cytosolic Ca^2+ levels", "test": "Cytosolic Ca2+ in hepatocytes (Fura-2-AM)", "type": "cell-based, human", "conditions": "immortalized HuH7 hepatocytes, listed as CF", "procedure": "Intracellular Ca^2+ in Huh7 and HepG2 cells was measured using a high-affinity Ca^2+ indicator, Fura-2-AM (Thermofisher Scientific). ER Ca^2+ levels were assessed using the low-affinity Ca^2+ indicator, Mag-Fluo-4, and via transfection of cells with D1ER. The D1ER plasmid encodes an ER-resident calcium binding protein linked to a fluorescent protein and increases in fluorescence intensity upon Ca^2+ binding (7). […] Cells were then washed and incubated with Fura-2-AM (2 μM) or Mag-Fluo-4 (2 μM) for 45 minutes at 37° C. in HBSS containing 20 mM HEPES and 2% pluronic acid v/v (Thermofisher Scientific).\nTo test this hypothesis, cytosolic Ca^2+ levels in CF-treated cells were first examined using the high-affinity fluorescent Ca^2+ indicator, Fura-2-AM. […] The fluorescence intensity of cells treated with CF and control agents, TG and CDN, was assessed using a fluorescent spectrophotometer and visualized using a fluorescent microscope (FIG. 6 A). […] ER Ca^2+ content was also assessed indirectly with the high affinity Ca^2+ dye, fura-2-AM (FIG. 6 B)."}, "LDLR": {"system": "LDLR", "test": "LDLR / CD36 expression in cultured hepatocytes", "type": "cell-based, human", "text": "Cells were washed in phosphate-buffered saline (PBS), lysed in 4× SDS-PAGE lysis buffer and separated on 7-10% polyacrylamide gels in denaturing conditions. […] Membranes were then exposed to horse radish peroxidase conjugated secondary antibodies and visualized using EZ-ECL chemiluminescent reagent (Froggabio). Band intensities were quantified using ImageJ software ([…]) against membranes reprobed for housekeeping proteins.\nSlides were then mounted with permafluor and visualized using the EVOS FL colour imaging system at either 20 or 40× magnification.\nRNA purification/isolation was performed using RNeasy mini kits (Qiagen) and normalized to 2 μg RNA using a NanoDrop® spectrophotometer. Samples were then reverse transcribed into cDNA using Superscript Vilo cDNA Synthesis kit (Thermofisher Scientific). Real-time PCR was executed with Fast SYBR Green (Thermo Fisher Scientific) using the ΔΔct method on the ViiA7 real-time PCR platform (Thermofisher Scientific).\n(§1) The uptake and accumulation of DiI-LDL was then quantified using a fluorescent spectrophotometer (Molecular Devices). […] Live-cell staining of the LDLR was also performed in HepG2 cells exposed to DiI-LDL (FIG. 11 D)."}, "HepG2 hepatocytes": {"system": "HepG2 hepatocytes", "test": "LDH cytotoxicity assay in HepG2 hepatocytes", "type": "cell-based, human", "conditions": "cultured HepG2 hepatocytes", "procedure": "Secreted PCSK9 levels were assessed using ELISAs and mRNA transcript via real-time PCR. […] Secreted PCSK9, as well as PCSK9 mRNA and SREBP2 mRNA were assessed in these cells. (E) The cytotoxicity of these agents was examined using an LDH assay. […] (G) The uptake of DiI-LDL was also quantified in these cells using a spectrophotometer. Values are presented as the mean and error bars as SD. *, p<0.05 vs. vehicle; NS, non-significant."}, "HepG2 cells": {"system": "HepG2 cells", "test": "DiI-LDL uptake assay in HepG2 cells", "type": "cell-based, human", "procedure": "During the last 5 h of treatment (h 19 to 24) cells were exposed to DiI-LDL (10 μg/ml) and then washed with two changes of pre-warmed (37° C.) HBSS containing 20 mM HEPES prior to analysis.\nas §1"}}, "note": "“Also recorded” adds a separate entry of the source."}
{"smiles": "Cn1c(=O)c2c(ncn2C)n(C)c1=O", "note": "[caffeine, 1,3,7-Trimethylxanthine]", "values": [{"measurement": "PCSK9 secretion from cells transfected with CMV-driven PCSK9 vector", "setting": "PCSK9; HepG2, CF 1 mM, listed as CF", "value": "failed to block the secretion of PCSK9; also recorded: does not affect CMV-driven PCSK9 expression"}, {"measurement": "PCSK9 secretion in Ca^2+-deficient medium", "setting": "PCSK9; HepG2, Ca^2+-deficient medium 48 h", "value": "failed to antagonize PCSK9 secretion"}, {"measurement": "phosphorylation of AMPK (pAMPK) and pACC in liver", "setting": "AMPK", "value": "induced the phosphorylation and activation of AMPK"}, {"measurement": "cytosolic Ca^2+ levels", "setting": "cytosolic Ca^2+ levels", "value": "significantly increased cytosolic Ca^2+ levels; also recorded: increases cytosolic Ca^2+ levels"}, {"measurement": "LDLR mRNA transcript levels", "setting": "LDLR; HuH7 and HepG2", "value": "reduced mRNA transcript levels of the LDLR"}, {"measurement": "expression of PCSK9-regulated receptors (LDLR, CD36)", "setting": "LDLR; cultured hepatocytes, CF 200 μM, immunoblots", "value": "increased the expression of PCSK9-regulated receptors"}, {"measurement": "cytotoxicity (LDH assay)", "setting": "HepG2 hepatocytes", "value": "did not exhibit cytotoxic properties"}, {"measurement": "LDLc (DiI-LDL) uptake", "setting": "HepG2 cells; HepG2, 24 h treatment, DiI-LDL 5 h", "value": "increased LDLc uptake"}, {"measurement": "LDLc uptake in PCSK9 shRNA cells", "setting": "HepG2 cells; HepG2 stably transfected with PCSK9 shRNA, CF 200 μM", "value": "failed to significantly increase LDLc uptake"}]}
